In patent US12115161B2, “Prophylactic and/or therapeutic agent for inflammatory diseases which contains pyrrolopyrimidine compound as active ingredient” (KEIO UNIVERSITY, priority 2018, dated 2024):

What was measured:
[1] = tested on: peripheral blood mononuclear cells (PBMC); experiment: IgG production by B cell-stimulation culture using peripheral blood mononuclear cells (Example 5); type: cell-based, human; details: 7 days (results not shown)
Protocol: Peripheral blood mononuclear cells were isolated from normal healthy human peripheral blood by density gradient centrifugation using Ficoll. In the presence of 5 μg/mL anti-human IgM antibody, 1 μg/mL anti-human CD40 antibody, 30 ng/mL recombinant human IL-21, 30 ng/mL recombinant human BAFF, and Compound A (0.4 μM, 2 μM, and 10 μM), 2×10^5 peripheral blood mononuclear cells were cultured using a 10% FBS/RPMI 1640 culture medium in a 5% CO2 environment at 37° C. for seven days. The cells were cultured in 96-well round-bottom culture plates in a scale of 200 μL per well. Seven days later, the supernatant was removed and the culture supernatant was collected to determine the IgG content in the culture supernatant by ELISA. As controls, experiments in the case of not adding Compound A and the case of adding neither Compound A nor BAFF were also performed. Moreover, for comparison with the effects of Compound A, experiments using BIK-13 instead of Compound A were also performed.

[2] = tested on: peripheral blood monocytes and B cells from Sjögren syndrome patients; experiment: IgG production in coculture of BAFF-stimulated peripheral blood monocytes and B cells (Example 4); type: cell-based, human; details: for IL-6 production inhibitory effect compared with the control: 4 days
Protocol: Monocytes were isolated from Sjögren syndrome patient peripheral blood using CD14 microbeads, and B cells were isolated from the peripheral blood using CD19 microbeads. Using Transwell® culture plates, 2×10^5 monocytes per well were seeded in the upper plate and 1×10^5 B cells in the lower plate to be cultured in the presence of 2 μg/mL recombinant human BAFF (same as Example 2) and Compound A (1 μM and 10 μM) using a 10% FBS/RPMI 1640 culture medium in a 5% CO2 environment at 37° C. for four days (coculture of the peripheral blood monocytes and the B cells via a membrane). Four days later, the supernatant was removed and the culture supernatant was collected to determine the IgG content in the culture supernatant by ELISA. As controls, experiments in the case of not adding Compound A and the case of adding neither Compound A nor BAFF were also performed. Moreover, for comparison with the effects of Compound A, experiments using BIK-13 instead of Compound A were also performed.

[3] = tested on: human peripheral blood monocytes; experiment: IL-6 production inhibitory effect of BAFF from human peripheral blood monocytes (Example 3); type: cell-based; details: for IL-6 production inhibitory effect compared with the control: 4 days
Protocol: Monocytes were isolated from normal healthy human peripheral blood using CD14-microbeads. In the presence of 2 μg/mL recombinant human BAFF (same as Example 2) and Compound A (2 μM and 10 μM) (entire culture scale of 24-well culture plates at 2 mL/well), 5×10^5 of the isolated monocytes were cultured using a 10% FBS/RPMI 1640 culture medium in a 5% CO2 environment at 37° C. for four days. Four days later, the supernatant was removed to determine the IL-6 content in the culture supernatant by IL-6 specific ELISA. For comparison, experiments using BIK-13 instead of Compound A were also performed.

[4] = tested on: human monocytic cell line THP-1; experiment: IL-6 production inhibitory effect of BAFF in IFNγ-precultured THP-1 cells (Example 2); type: cell-based; details: for relative amount of IL-6 production: 30 μM, control (BAFF only) = 100%
Protocol: In 24-well plates (manufactured by Corning Inc.) in a RPMI-1640 culture medium (produced by ATCC) containing 10% fetal bovine serum (produced by JRH Biosciences), 5×10^5 cells of human monocytic leukemia cell line THP-1 (obtained from a bioresource bank, Japanese Collection of Research Bioresource) were seeded per well. IFNγ (interferon γ, produced by BD Pharmingen) was added to a final concentration of 200 ng/mL and cultured in a 5% CO2 environment at 37° C. After four days of culture, the culture broth in each well was removed and the cells were washed twice with the culture medium, followed by addition of the culture medium containing a final concentration of 2 μg/mL of recombinant human soluble BAFF (produced by Chemicon), and respective test compounds were added to a final concentration of 20 μM or 2 μM to continue the culture in the same conditions. After three days of culture, the culture supernatant was collected to determine the IL-6 content in the supernatant by ELISA. For ELISA, mouse anti-human IL-6 antibody (produced by BD Pharmingen), biotin-labeled anti-human IL-6 antibody (produced by BD Pharmingen), and HRP-labeled streptavidin (produced by BD Pharmingen) were used. The test compound groups were used by purchasing from Asinex. In the test system, Compound 27 (BIK-13) in PTL 1 was used as a positive control (compound with inhibitory action on IL-6 production by monocytic cells). BIK-13 was the same as the compound of ADM 12880656 by Asinex Japan Inc.
In the presence of 200 ng/mL recombinant human IFNγ (same as Example 1) (entire culture scale of 24-well culture plates at 2 mL/well), 5×10^5 cells of human monocytic cell line THP-1 (same as Example 1) were cultured using a 10% FBS/RPMI 1640 culture medium in a 5% CO2 environment at 37° C. for four days (96 hours). Four days later, an operation of removing the supernatant, adding a new medium, leaving it still in an incubator, and removing the supernatant was repeated twice. After removing the supernatant, recombinant human BAFF (2 μg/mL) was dissolved together with Compound A (ADM 12880492, Asinex Japan Inc.) or Compound B (ADM 12880696, Asinex Japan Inc.) in a medium and added to the culture wells to be cultured for three days. Three days later, the culture supernatant was collected to determine the IL-6 content in the culture supernatant by IL-6 specific ELISA. As a control, instead of Compound A or Compound B, BIK-13 was used.

| SMILES | IL-6 production inhibitory effect compared with the control ([1]; 0.4 μM and 2 μM) | IL-6 production inhibitory effect compared with the control ([1]; 10 μM) | IL-6 production inhibitory effect compared with the control ([2]; 1 μM with 2 μg/mL human BAFF) | IL-6 production inhibitory effect compared with the control ([2]; 10 μM with 2 μg/mL human BAFF) | cancellation of the IgG antibody production enhancement by BAFF ([2]; 10 μM, compared with adding neither compound nor BAFF) | IL-6 production inhibitory effect compared with the control ([3]; 2 μM with 2 μg/mL human BAFF) | IL-6 production inhibitory effect compared with the control ([3]; 10 μM with 2 μg/mL human BAFF) | relative amount of IL-6 production ([3]; 10 μM, control = 100%) [%] | IL-6 production inhibitory effect compared with adding no compound ([4]; 1.2 μM with 2 μg/mL human BAFF, 3 days) | IL-6 production inhibitory effect compared with adding no compound ([4]; 6 μM and 30 μM with 2 μg/mL human BAFF, 3 days) | relative amount of IL-6 production [4] | IL-6 production inhibitory effect compared with the control ([4]; 0.04 μM, 0.2 μM and 1 μM together with 2 μg/mL human BAFF, 3 days, ELISA) | IL-6 production inhibitory effect compared with BIK-13 ([4]; THP-1 system of Example 2) |
| --- | --- | --- | --- | --- | --- | --- | --- | --- | --- | --- | --- | --- | --- |
| Cc1c(C)n(C2CCCC2)c2ncnc(OC3CCN(C(=O)CN4CCCC4=O)CC3)c12 [BIK-13, reference compound] | no significant difference | significant (p<0.01) IL-6 production inhibitory effect | no significant difference | significant (p<0.01) IL-6 production inhibitory effect | not completely cancelled | no significant difference | significant (p<0.05) IL-6 production inhibitory effect | 80.2±14.5 | no significant difference | significant (p<0.001) IL-6 production inhibitory effects | 52.8±2.2% |  |  |
| Cc1c(C)n(C2CCCC2)c2ncnc(OC3CCN(CCC#N)CC3)c12 [Compound B, 3-[4-{(7-cyclopentyl-5,6-dimethyl-7H-pyrrolo[2,3-d]pyrimidin-4-yl)oxy}piperidin-1-yl]propanenitrile] |  |  |  |  |  |  |  |  |  |  | below 50% | significant (p<0.001) IL-6 production inhibitory effects | stronger IL-6 production inhibitory effect than BIK-13 |
